One experiment has as its system L929 cells. Description: L929 cell necroptosis assay (TNFa + zVAD, CellTiter-Glo). To be noted: TNFa + zVAD, read-out: L929-CTG-recovery, L929, TNFa + zVAD (IC50). Format: cell-based, murine. Put shortly:
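Necroptosis was read as CellTiter-Glo luminescence 18 hours after TNFa stimulation at 37° C, 5% CO2. Prior to that, L929 cells (10K/well, plated 18 h) received fresh medium with 40 uM zVAD-fmk plus 4-fold serially diluted compound.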

In a further experiment the test system is U937 cells. Description: U937 cell necroptosis assay (TNFa + zVAD, CellTiter-Glo). Type of experiment: cell-based, human. The conditions noted are these: TNFa + zVAD, read-out: U937 Zvad TNF CTG Recovery, U937, TNFa + zVAD (IC50). In outline:
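Necroptosis was induced with TNFa at 2 ng/mL final for 18 h at 37 °C, following 1 h compound pre-incubation in the presence of zVAD-fmk (60 uM for U937 plating medium, 40 uM for L929 medium). Luminescent CellTiter-Glo signal gave relative cell survival.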

A further experiment addresses RIPK1 (Homo sapiens (Human), UniProt Q13546). Description: RIPK1 ADP-Glo biochemical kinase assay. The conditions noted are these: read-out: RIPK1 ADP-Glo Kinase (IC50). The protocol:
The final reaction volume was 5.0ul.
Adding 5 μl of ADP-Glo™ terminated the reaction.

Where [1] appears, read: Homo sapiens, U-937, U937 cells.

IC50 data for 20 compounds are collected here from US11407736B2 (priority 2019, dated 2022).

Like-named read-outs stand apart in the source and are kept apart here.

Chain of RIPK1 (Q13546 whole entry, species assumed): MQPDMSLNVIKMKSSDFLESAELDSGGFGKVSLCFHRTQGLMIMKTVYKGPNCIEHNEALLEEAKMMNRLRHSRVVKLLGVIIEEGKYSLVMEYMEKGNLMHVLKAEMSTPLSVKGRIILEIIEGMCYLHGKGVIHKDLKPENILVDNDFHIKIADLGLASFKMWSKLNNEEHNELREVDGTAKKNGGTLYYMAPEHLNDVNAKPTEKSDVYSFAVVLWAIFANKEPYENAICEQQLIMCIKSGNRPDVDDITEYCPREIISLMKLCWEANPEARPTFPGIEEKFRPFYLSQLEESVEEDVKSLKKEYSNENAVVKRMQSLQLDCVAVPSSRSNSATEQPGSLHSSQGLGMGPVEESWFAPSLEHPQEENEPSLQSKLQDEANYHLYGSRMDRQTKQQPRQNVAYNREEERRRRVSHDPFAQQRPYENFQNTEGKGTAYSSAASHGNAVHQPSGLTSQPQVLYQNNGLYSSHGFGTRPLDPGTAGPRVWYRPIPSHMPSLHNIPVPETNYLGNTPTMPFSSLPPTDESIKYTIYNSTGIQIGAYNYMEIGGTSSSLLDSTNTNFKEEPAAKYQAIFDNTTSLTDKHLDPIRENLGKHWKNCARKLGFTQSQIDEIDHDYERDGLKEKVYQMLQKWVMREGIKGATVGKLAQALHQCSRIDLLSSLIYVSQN

Take `CN1C(=O)[C@@H](NC(=O)c2n[nH]c(Cc3cccc(F)c3)n2)COc2ccc(C#CC(C)(C)O)cc21` [Compound I-78, (S)-5-(3-fluorobenzyl)-N-(7-(3-hydroxy-3-methylbut-1-yn-1-yl)-5-methyl-4-oxo-2,3,4,5-tetrahydrobenzo[b][1,4]oxazepin-3-yl)-1H-1,2,4-triazole-3-carboxamide]: the IC50 in the experiment with L929 cells (Mus musculus, L929, L929 cells) came out at 0.0009 µM; with U937 cells (setting [1]), 0.0025 µM; at RIPK1 it was 0.0334 µM.

For the compound `CN1C(=O)[C@@H](NC(=O)c2n[nH]c(Cc3ccccc3)n2)COc2ccc(CCC(=O)N3CCOCC3)cc21` [Compound I-11, (S)-5-benzyl-N-(5-methyl-7-(3-morpholino-3-oxopropyl)-4-oxo-2,3,4,5-tetrahydrobenzo[b][1,4]oxazepin-3-yl)-1H-1,2,4-triazole-3-carboxamide], the IC50 with L929 cells (Mus musculus, L929, L929 cells) is 14.1 µM; with U937 cells (setting [1]) it was 0.0081 µM; at RIPK1, 0.0571 µM.

`CN1C(=O)[C@@H](NC(=O)c2cc(Cc3ccccc3)on2)COc2ccc(C#CC(C)(C)O)cc21` [Compound I-87, (S)-5-benzyl-N-(7-(3-hydroxy-3-methylbut-1-yn-1-yl)-5-methyl-4-oxo-2,3,4,5-tetrahydrobenzo[b][1,4]oxazepin-3-yl)isoxazole-3-carboxamide]: the IC50 in the experiment with L929 cells (Mus musculus, L929, L929 cells) was determined as 0.0292 µM; with U937 cells (setting [1]) it was 0.139 µM; on RIPK1 it was 0.0187 µM.

In the case of `CN1C(=O)[C@@H](NC(=O)c2cc(Oc3ccccc3)ccn2)COc2ccc(C#CC3(O)CCNCC3)cc21` [Compound I-132, (S)—N-(7-((4-hydroxypiperidin-4-yl)ethynyl)-5-methyl-4-oxo-2,3,4,5-tetrahydrobenzo[b][1,4]oxazepin-3-yl)-4-phenoxypicolinamide], the half-maximal inhibitory concentration (IC50) came to 4.6 µM with L929 cells (Mus musculus, L929, L929 cells); 0.0359 µM in the experiment with U937 cells (setting [1]); 0.0305 µM on RIPK1.

As for `CN1C(=O)[C@@H](NC(=O)c2ncn(Cc3ccccc3)n2)COc2ccc(C#CC3(O)CCC3)cc21` [Compound I-50, (S)-1-benzyl-N-(7-((1-hydroxycyclobutyl)ethynyl)-5-methyl-4-oxo-2,3,4,5-tetrahydrobenzo[b][1,4]oxazepin-3-yl)-1H-1,2,4-triazole-3-carboxamide], the half-inhibitory concentration (IC50) was found to be 0.0003 µM with L929 cells (Mus musculus, L929 cells); 0.0011 µM in the experiment on U937 cells (setting [1]); 0.0234 µM on RIPK1.

As for `CC(=O)N1CCC(O)(C#Cc2ccc3c(c2)N(C)C(=O)[C@@H](NC(=O)c2cc(Oc4ccc(F)cc4)ccn2)CO3)CC1` [Compound I-134, (S)—N-(7-((l-acetyl-4-hydroxypiperidin-4-yl)ethynyl)-5-methyl-4-oxo-2,3,4,5-tetrahydrobenzo[b][1,4]oxazepin-3-yl)-4-(4-fluorophenoxy)picolinamide], the IC50 was 0.608 µM in the experiment on L929 cells (Mus musculus, L929, L929 cells); 0.0274 µM in the experiment on U937 cells (setting [1]); 0.0528 µM on RIPK1.

On to `CN1C(=O)[C@@H](NC(=O)c2cc(Oc3ccccc3)ccn2)COc2ccc(C#Cc3cccc(C#N)n3)cc21` [II-33, (S)—N-(7-((6-cyanopyridin-2-yl)ethynyl)-5-methyl-4-oxo-2,3,4,5-tetrahydrobenzo[b][1,4]oxazepin-3-yl)-4-phenoxypicolinamide], for which the IC50 came out at 0.0331 µM in the experiment with L929 cells (Mus musculus, L929, L929 cells); 0.0018 µM in the experiment on U937 cells (setting [1]); 0.101 µM on RIPK1.

`CN1C(=O)[C@@H](NC(=O)c2cc(Oc3ccccc3)ccn2)COc2ccc(C#CC3(F)COC3)cc21` [Compound I-129, (S)—N-(7-((3-fluorooxetan-3-yl)ethynyl)-5-methyl-4-oxo-2,3,4,5-tetrahydrobenzo[b][1,4]oxazepin-3-yl)-4-phenoxypicolinamide]: the IC50 in the experiment on L929 cells (Mus musculus, L929, L929 cells) came to 0.0241 µM; in the experiment with U937 cells (setting [1]), 0.0007 µM; on RIPK1, 0.0352 µM.

For `C[C@H](NC(=O)OC(C)(C)C)C(=O)OCC(C)(C)C#Cc1ccc2c(c1)N(C)C(=O)[C@@H](NC(=O)c1cc(Oc3ccccc3)ccn1)CO2` [Compound I-141, tert-butyl ((S)-1-((2,2-dimethyl-4-((S)-5-methyl-4-oxo-3-(4-phenoxypicolinamido)-2,3,4,5-tetrahydrobenzo[b][1,4]oxazepin-7-yl)but-3-yn-1-yl)oxy)-1-oxopropan-2-yl)-12-azanecarboxylate], the figures for the half-maximal inhibitory concentration (IC50) in the experiment with L929 cells (L929 cells), in the experiment on U937 cells (U937 cells) and on RIPK1 were 0.12 µM, 0.0022 µM and 0.414 µM, respectively.

Consider `CN1C(=O)[C@@H](NC(=O)n2cc(Cc3ccc(F)cc3)cn2)COc2ccc(C#CC3(O)COC3)cc21` [Compound I-222, (S)-4-(4-Fluorobenzyl)-N-(7-((3-hydroxyoxetan-3-yl)ethynyl)-5-methyl-4-oxo-2,3,4,5-tetrahydrobenzo[b][1,4]oxazepin-3-yl)-1H-pyrazole-1-carboxamide], for which the IC50 is 0.0625 µM in the experiment on L929 cells (Mus musculus, L929, L929 cells); 0.0014 µM in the experiment on U937 cells (setting [1]); 0.0166 µM on RIPK1.

For `CN1C(=O)[C@@H](NC(=O)c2n[nH]c(Cc3ccccc3)n2)COc2ccc(C#CCN3CCCC3)cc21` [Compound I-95, (S)-5-benzyl-N-(5-methyl-4-oxo-7-(3-(pyrrolidin-1-yl)prop-1-yn-1-yl)-2,3,4,5-tetrahydrobenzo[b][1,4]oxazepin-3-yl)-1H-1,2,4-triazole-3-carboxamide], the IC50 with L929 cells (Mus musculus, L929, L929 cells) came out at 0.0005 µM; with U937 cells (setting [1]) it was 0.0014 µM; at RIPK1, 0.0271 µM.

Regarding `CN1C(=O)[C@@H](NC(=O)c2ncn(Cc3ccccc3)n2)COc2ccc(CCC(N)=O)cc21` [Compound I-32, (S)—N-(7-(3-amino-3-oxopropyl)-5-methyl-4-oxo-2,3,4,5-tetrahydrobenzo[b][1,4]oxazepin-3-yl)-1-benzyl-1H-1,2,4-triazole-3-carboxamide], the 50% inhibitory concentration (IC50) in the experiment on L929 cells (Mus musculus, L929, L929 cells) was found to be 17.7 µM; with U937 cells (setting [1]), 0.0027 µM; on RIPK1, 0.0219 µM.

`CN1C(=O)[C@@H](NC(=O)c2cc(Oc3ccccc3)ccn2)COc2ccc(C#CC3(O)CCS(=O)(=O)CC3)cc21` [Compound I-207, (S)—N-(7-((4-Hydroxy-1,1-dioxidotetrahydro-2H-thiopyran-4-yl)ethynyl)-5-methyl-4-oxo-2,3,4,5-tetrahydrobenzo[b][1,4]oxazepin-3-yl)-4-phenoxypicolinamide]: the 50% inhibitory concentration (IC50) was 0.116 µM in the experiment with L929 cells (Mus musculus, L929, L929 cells); 0.0005 µM in the experiment with U937 cells (setting [1]); 0.0279 µM at RIPK1.

Turning to `C=C(C)C#Cc1ccc2c(c1)N(C)C(=O)[C@@H](NC(=O)c1n[nH]c(Cc3ccccc3)n1)CO2` [Compound I-59, (S)-5-benzyl-N-(5-methyl-7-(3-methylbut-3-en-1-yn-1-yl)-4-oxo-2,3,4,5-tetrahydrobenzo[b][1,4]oxazepin-3-yl)-1H-1,2,4-triazole-3-carboxamide], the IC50 in the experiment on L929 cells (Mus musculus, L929, L929 cells) came out at 0.0007 µM; in the experiment on U937 cells (setting [1]), 0.0019 µM; on RIPK1, 0.0579 µM.

As to `CN1C(=O)[C@@H](NC(=O)c2cc(Oc3cccc(F)c3)ccn2)COc2ccc(C#CC(C)(C)C)cc21` [Compound I-106, (S)—N-(7-(3,3-dimethylbut-1-yn-1-yl)-5-methyl-4-oxo-2,3,4,5-tetrahydrobenzo[b][1,4]oxazepin-3-yl)-4-(3-fluorophenoxy)picolinamide], the IC50 was 0.481 µM in the experiment with L929 cells (Mus musculus, L929, L929 cells); 0.0055 µM in the experiment with U937 cells (setting [1]); 0.582 µM at RIPK1.

Consider `CN1C(=O)[C@@H](NC(=O)c2n[nH]c(Cc3ccccc3)n2)COc2ccc(CCCO)cc21` [Compound I-14, (S)-5-benzyl-N-(7-(3-hydroxypropyl)-5-methyl-4-oxo-2,3,4,5-tetrahydrobenzo[b][1,4]oxazepin-3-yl)-1H-1,2,4-triazole-3-carboxamide], for which the IC50 came to 5.88 µM in the experiment on L929 cells (Mus musculus, L929, L929 cells); 0.0114 µM with U937 cells (setting [1]); 0.073 µM at RIPK1.

With `CN1C(=O)[C@@H](NC(=O)c2n[nH]c(Cc3ccccc3)n2)COc2ccc(CCCCO)cc21` [Compound I-15, (S)-5-benzyl-N-(7-(4-hydroxybutyl)-5-methyl-4-oxo-2,3,4,5-tetrahydrobenzo[b][1,4]oxazepin-3-yl)-1H-1,2,4-triazole-3-carboxamide], the IC50 with L929 cells (Mus musculus, L929, L929 cells) stood at 2.2 µM; in the experiment with U937 cells (setting [1]), 0.0048 µM; on RIPK1, 0.136 µM.

Regarding `CCOC(=O)CCc1ccc2c(c1)N(C)C(=O)[C@@H](NC(=O)c1ncn(Cc3ccccc3F)n1)CO2` [Compound I-5, Ethyl (S)-3-(3-(1-(2-fluorobenzyl)-1H-1,2,4-triazole-3-carboxamido)-5-methyl-4-oxo-2,3,4,5-tetrahydrobenzo[b][1,4]oxazepin-7-yl)propanoate], the IC50 in the experiment with L929 cells (Mus musculus, L929, L929 cells) worked out at 0.0188 µM; in the experiment with U937 cells (setting [1]) it was 0.0005 µM; at RIPK1, 0.0197 µM.

On to `CN1C(=O)[C@@H](NC(=O)c2cc(Oc3ccccc3)ccn2)COc2ccc(N3CCC4(CCOCC4)C3)cc21` [II-31, (S)—N-(5-methyl-4-oxo-7-(8-oxa-2-azaspiro[4.5]decan-2-yl)-2,3,4,5-tetrahydrobenzo[b][1,4]oxazepin-3-yl)-4-phenoxypicolinamide], for which the half-inhibitory concentration (IC50) stood at 0.654 µM in the experiment on L929 cells (Mus musculus, L929 cells); 0.008 µM with U937 cells (setting [1]); 0.0363 µM on RIPK1.

`CN1C(=O)[C@@H](NC(=O)n2cc(Cc3ccccc3)cn2)COc2ccc(C#Cc3cccnc3)cc21` [Compound I-214, (S)-4-Benzyl-N-(5-methyl-4-oxo-7-(pyridin-3-ylethynyl)-2,3,4,5-tetrahydrobenzo[b][1,4]oxazepin-3-yl)-1H-pyrazole-1-carboxamide]: the IC50 in the experiment on L929 cells (Mus musculus, L929, L929 cells) is 0.352 µM; in the experiment on U937 cells (setting [1]) it was 0.004 µM; on RIPK1, 0.0762 µM.
